From ChEMBL document CHEMBL5728724, “6-aryl-7-substituted-3-(1H-pyrazol-5-yl)-7H-[1,2,4]triazolo[3,4-b][1,3,4]thiadiazines as inhibitors of the STAT3 pathway with anti-proliferative activity” (2021) come the findings set out here.

The IC50 is the midpoint of a concentration-inhibition curve. A higher IC50 goes with lower potency.

Structures are written as SMILES.

The assay addresses T1, Signal transducer and activator of transcription 1-alpha/beta (Homo sapiens, UniProt P42224).
T1 sequence (P42224 whole entry): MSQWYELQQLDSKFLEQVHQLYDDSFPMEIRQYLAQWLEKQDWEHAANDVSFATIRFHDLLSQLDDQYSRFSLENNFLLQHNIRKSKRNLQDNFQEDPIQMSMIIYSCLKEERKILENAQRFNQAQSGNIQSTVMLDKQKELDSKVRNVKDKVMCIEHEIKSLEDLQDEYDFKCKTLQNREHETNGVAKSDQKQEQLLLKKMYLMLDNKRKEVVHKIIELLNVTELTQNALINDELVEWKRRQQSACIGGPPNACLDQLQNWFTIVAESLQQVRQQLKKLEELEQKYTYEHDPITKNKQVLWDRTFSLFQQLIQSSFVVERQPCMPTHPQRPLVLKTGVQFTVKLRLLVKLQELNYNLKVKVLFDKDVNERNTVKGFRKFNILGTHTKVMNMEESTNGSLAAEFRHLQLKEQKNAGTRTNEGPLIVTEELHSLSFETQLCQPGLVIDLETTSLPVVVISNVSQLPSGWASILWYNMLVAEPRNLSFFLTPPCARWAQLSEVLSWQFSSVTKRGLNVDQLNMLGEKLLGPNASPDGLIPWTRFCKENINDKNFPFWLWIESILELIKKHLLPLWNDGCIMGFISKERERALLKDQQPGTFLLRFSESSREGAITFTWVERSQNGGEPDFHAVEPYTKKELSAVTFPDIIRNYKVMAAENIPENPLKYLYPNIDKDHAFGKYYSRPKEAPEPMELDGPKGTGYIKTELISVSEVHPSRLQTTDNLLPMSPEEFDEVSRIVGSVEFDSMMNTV
Briefly: Bioassay: Compound samples (in 3-5 mg quantities) were evaluated in a variety of assays. All compound submissions were fully characterized (1H, 13C, IR, FIRMS), satisfied purity criteria (≥95% LC/MC, ELS).
With `C1=Nn2c(nnc2-c2[nH]nc3c2CCC3)SC1`, the IC50 was over 50 µM.
Under `CC1Sc2nnc(-c3cc(-c4ccc(F)cc4)n[nH]3)n2N=C1c1ccccc1` (centres undefined) stands over 30 µM; under `COc1ccc(C2=Nn3c(nnc3-c3[nH]nc4c3CCC4)SC2C(C)C)cc1` (centres undefined), over 50 µM; under `CC(C)C1Sc2nnc(-c3[nH]nc4c3CCC4)n2N=C1c1ccc(Cl)c(Cl)c1` (centres undefined), over 50 µM.
Regarding `CC1=Nn2c(nnc2-c2cc(-c3ccccc3)[nH]n2)SC1`, the IC50 is over 50 µM.
Under `CC1=Nn2c(nnc2-c2[nH]nc3c2CCC3)SC1` stands over 50 µM; under `C1=Nn2c(nnc2-c2cc(-c3ccccc3)n[nH]2)SC1`, over 50 µM; under `c1ccc(-c2cc(-c3nnc4n3N=C(C3CCCCC3)CS4)[nH]n2)cc1`, over 50 µM.
In turn, `c1ccc(C2=Nn3c(nnc3-c3cc(-c4ccccc4)[nH]n3)SC2)cc1` came in with a concentration for half-maximal inhibition (IC50) of over 50 µM.
`c1cc(C2=Nn3c(nnc3-c3[nH]nc4c3CCC4)SC2)ccn1` had an IC50 of over 50 µM.
Under `Clc1ccc(C2=Nn3c(nnc3-c3[nH]nc4c3CCC4)SC2)cc1` stands over 50 µM; under `C1CCC(C2=Nn3c(nnc3-c3[nH]nc4c3CCC4)SC2)CC1`, over 50 µM.
As for `Clc1ccc(C2=Nn3c(nnc3-c3cc(-c4ccccc4)n[nH]3)SC2)s1`, the IC50 is over 50 µM.
Under `Clc1ccc(C2=Nn3c(nnc3-c3cc(-c4ccccc4)n[nH]3)SC2)cc1Cl` stands over 50 µM; under `Clc1ccc(C2=Nn3c(nnc3-c3[nH]nc4c3CCC4)SC2)s1`, over 50 µM.
Under `c1ccc(C2=Nn3c(nnc3-c3[nH]nc4c3CCC4)SC2)cc1` stands over 50 µM.
Compound `COc1ccc(C2=Nn3c(nnc3-c3cc(-c4ccc(F)cc4)n[nH]3)SC2C)cc1` (centres undefined) returned a concentration for half-maximal inhibition (IC50) of over 30 µM.
Under `COc1ccc(C2=Nn3c(nnc3-c3[nH]nc4c3CCC4)SC2C)cc1` (centres undefined) stands over 50 µM; under `c1ccc(-c2cc(-c3nnc4n3N=C(c3ccncc3)CS4)[nH]n2)cc1`, over 50 µM.
